These results are taken from patent publication US20230277553A1, “THERAPEUTIC COMPOSITION OF CURE-PRO COMPOUNDS FOR TARGETED DEGRADATION OF BET DOMAIN PROTEINS, AND METHODS OF MAKING AND USAGE” (CORNELL UNIVERSITY, priority 2020, published 2023).

In test [1] the test system is SLC19A1. The test is described as follows: Suppression of c-MYC downstream target gene SLC19A1, RT-PCR (Cells-to-Ct), HeLa cells. The test is classed as cell-based, Human. To be noted: 24 h, 10 μM. The method, then: The suppression of the expression of the downstream c-MYC target, SLC19A1, was measured by RT-PCR using Power SYBR© Green Cells-to-Ct™ Kit (Life Technologies). Adherent cells were plated on 96 well plates at 5,000 cells per well were treated for 24h with monomer compounds and compounds capable of reversible interactions (1 nM-100 μM). Cells were subsequently washed in ice-cold PBS processed according to the manufacturer's instructions. Quantitative real-time PCR was performed using a ViiA™ 7 Real-time PCR System (Applied Biosystems, Foster City, Calif., USA). GAPDH and ACTB served as internal controls. The primers used were (5′-3′): GAPDH-F: AGCCACATCGCTCAGACAC (SEQ ID NO:9), GAPDH-R: GCCCAATACGACCAAATCC (SEQ ID NO:10), ACTB —F: CCAACCGCGAGAAGATGA (SEQ ID NO: 11), ACTB -R: […] (SEQ ID NO: 12), SLC19A1-F: […] (SEQ ID NO:13), SLC19A1-R: […] (SEQ ID NO: 14).
HeLa cells (1×104) were treated for 24 hours in 96 well plates with the compounds solubilized in DMSO. Compounds were added at 10 μM each and RNA expression measured by the Cells-to Ct method described above (Thermofisher). CURE-PRO-mediated suppression of the downstream target gene of c-MYC, SLC19A1, after BRD4 degradation was evident in cells treated with the combination of BRD-N25 and 8310 or 8312 (FIG. 66) and BRD-N39 and 8310 and 8312 (FIG. 67) as indicated by a rightward shift in the curve and in increase in the Ct values.

The subject of test [2] is MV-4-11 cells. The test is described as follows: CellTiter-Glo cell viability, MV-4-11 cells. The test is classed as cell-based. To be noted: for Loss of cellular viability / toxicity, cotreated with cereblon ligands 8046, 8047 and 8066 vs monomers alone: MV-4-11, 72 hours, 1:1, 10 nM-100 μM each. The procedure:
CellTiter-Glo® 2.0 Cell Viability Assay (Promega) was carried out following the manufacturer's recommendations. Cells were seeded at a density of 1000 cells/well in a white 96 well plates (Corning, #3917) in a total volume of 100 μl with respective monomers, combinations of BRD ligands together with E3 ligase ligands or vehicle control treatment. After a 72 h incubation, 100 ul of the CellTiter-Glo® substrate was added per well and luminescence was read on a Spectramax M5 (Molecular Devices). Dose-response curves were generated using Graphpad Prism software.
MV-4-11 cells (5×104) were treated for 24 hours with the sample compounds solubilized in DMSO. The compounds were added at 1 nM-100 μM each. Cellular viability was determined using the CellTiter-Glo® Luminescent Cell Viability Assay (Promega) described above. FIGS. 19-22 depict the CURE-PRO-mediated loss of cellular viability for BRD monomers (JQ1 derivatives comprising of catechol linkers), and CRBN ligand, 8049 (pomalidomide derivatives comprising boronic acid linkers) combined in a 1:1 ratio.
MV-4-11 cells (1×104) were treated for 72 hours with the compounds solubilized in DMSO. Compounds were added at 10 nM-100 μM each. Cellular viability was determined using the CellTiter-Glo® Luminescent Cell Viability Assay (Promega) described above. FIGS. 47-54 depict the CURE-PRO-mediated loss of cellular viability for BRD monomers (JQ1 derivatives comprising of boronic acid linkers), and CRBN ligands, 8046, 8047 and 8066 (pomalidomide derivatives comprising diol linkers) combined in a 1:1 ratio.
For orientation: ATP-based viability assays read luminescence as a measure of living cells.

The target in test [3] is T1, BRD4 (Homo sapiens, UniProt O60885). Put plainly: CURE-PRO-mediated BRD4 degradation, Western blot, HeLa cells. The test is classed as cell-based. On the set-up: endogenous in cells; host or cells: HeLa. The following applies: for BRD4 degradation, co-treatment with CRBN ligand 8046: 1:1 with 8046, 10 μM each; for BRD4 degradation, co-treatment with CRBN ligand 8047: 1:1 with 8047, 10 μM each; for BRD4 degradation, co-treatment with CRBN ligand 8066: 1:1 with 8066, 10 μM each (BRD-E10: 10 and 100 μM). The method in brief:
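HeLa cells treated 24 h with compounds in DMSO (1-10 μM, 10 μM or 100 μM each; paired monomers combined 1:1), optional 15-min pretreatment with pomalidomide, VHL298, Nutlin3a (10 μM) or MG-132/carfilzomib (1 μM). RIPA lysates, 10-20 μg protein immunoblotted for BRD4 with β-actin, ECL detection.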
Background: Immunoblotting shows a protein as a band on a membrane.

The target of test [4] is T1, BRD4. The test is described as follows: Summary of BRD4 degradation by CURE-PRO pairs, estimated from Western Blot or WES (Proteinsimple). The test is classed as cell-based. On the set-up: endogenous in cells. To be noted: for Degradation of BRD4 in combination with CRBN ligand [drawing 372]: third drawing (8066); for Degradation of BRD4 in combination with CRBN ligand [drawing 370]: aromatic 1,2-diol- or hindered cis-1,2-diol-containing CRBN ligand, first drawing (8046). An excerpt: A black check mark indicates efficacy of 30% to 70% or higher protein degradation.

SMILES strings stand for the structures. “Also recorded” adds a separate entry of the source.

Take `Cc1sc2c(c1C)C(c1ccc(Cl)cc1)=N[C@@H](CC(=O)Nc1ccc(OCCOCCOCCOCCNc3cccc4c3C(=O)N(C3CCC(=O)NC3=O)C4=O)cc1)c1nnc(C)n1-2` (stereo partly drawn) [ARV-825, reference compound]: the “Suppression of SLC19A1 expression, single compound” value in test [1] was “Complete suppression of SLC19A1 was evident; also recorded: completely suppressed”.

Turning to `COc1ccc2c(c1)C(c1ccc(Cl)cc1)=N[C@@H](CC(=O)NCCNC(=O)/C=C/c1ccc(B(O)O)cc1)c1nnc(C)n1-2` [BRD-E29, (4-((E)-3-((2-(2-((4S)-6-(4-chlorophenyl)-8-methoxy-1-methyl-4H-benzo[f][1,2,4]triazolo[4,3-a][1,4]diazepin-4-yl)acetamido)ethyl)amino)-3-oxoprop-1-en-1-yl)phenyl)boronic acid], the “Loss of cellular viability / toxicity, cotreated with cereblon ligands 8046, 8047 and 8066 vs monomers alone” value in test [2] is on record as “reduced viability; also recorded: increased toxicity”. In test [3] (24 h, Western blot), the “BRD4 degradation, co-treatment with CRBN ligand 8046” value is “causes degradation of BRD4; also recorded: Degradation is noted”; the “BRD4 degradation, co-treatment with CRBN ligand 8047” value is listed as “causes degradation of BRD4; also recorded: Degradation is noted”; the “BRD4 degradation, co-treatment with CRBN ligand 8066” value was “causes degradation of BRD4; also recorded: Degradation is noted”. In test [4] (Table 1, CRBN ligand, second drawing (8047)), the “Degradation of BRD4 in combination with CRBN ligand [drawing 371]” value was “✓ (A black check mark indicates efficacy of 30% to 70% or higher protein degradation)”. The “Degradation of BRD4 in combination with CRBN ligand [drawing 372]” value in test [4] (Table 1, CRBN ligand) was “✓ (A black check mark indicates efficacy of 30% to 70% or higher protein degradation)”. In test [4] (Table 1), the “Degradation of BRD4 in combination with CRBN ligand [drawing 370]” value (“Degradation of BRD4 … [drawing 370]” for short) is “✓ (A black check mark indicates efficacy of 30% to 70% or higher protein degradation)”.

On to `COc1ccc2c(c1)C(c1ccc(Cl)cc1)=N[C@@H](CC(=O)NCCOCCOCCNC(=O)c1cccc(B(O)O)c1)c1nnc(C)n1-2` [BRD-E46], for which, in test [2], the “Loss of cellular viability / toxicity, cotreated with cereblon ligands 8046, 8047 and 8066 vs monomers alone” value is given as “reduced viability; also recorded: increased toxicity”. In test [3] (24 h, Western blot), the “BRD4 degradation, co-treatment with CRBN ligand 8046” value was “causes degradation of BRD4; also recorded: Degradation is noted” and the “BRD4 degradation, co-treatment with CRBN ligand 8066” value is “causes degradation of BRD4; also recorded: Degradation is noted”. In addition, in test [4] (Table 1, CRBN ligand), the “Degradation of BRD4 in combination with CRBN ligand [drawing 372]” value is “✓ (A black check mark indicates efficacy of 30% to 70% or higher protein degradation)”. In test [4] (Table 1), the “Degradation of BRD4 … [drawing 370]” value is “✓ (A black check mark indicates efficacy of 30% to 70% or higher protein degradation)”.

`CCNC(=O)C[C@@H]1N=C(c2ccc(Cl)cc2)c2cc(Sc3cccc(B(O)O)c3)ccc2-n2c(C)nnc21` [BRD-E76]: the “Loss of cellular viability / toxicity, cotreated with cereblon ligands 8046, 8047 and 8066 vs monomers alone” value in test [2] is “reduced viability; also recorded: increased toxicity”. In test [3] (24 h, Western blot), the “BRD4 degradation, co-treatment with CRBN ligand 8046” value is reported as “causes degradation of BRD4” and the “BRD4 degradation, co-treatment with CRBN ligand 8047” value was “causes degradation of BRD4”. Moreover, the “Degradation of BRD4 … [drawing 370]” value in test [4] (Table 1) is listed as “✓ (A black check mark indicates efficacy of 30% to 70% or higher protein degradation)”.

For the compound `CCNC(=O)C[C@@H]1N=C(c2ccc(Cl)cc2)c2cc(OCCCCCCCNC(=O)c3ccc(B(O)O)cc3)ccc2-n2c(C)nnc21` [BRD-E78], the “Loss of cellular viability / toxicity, cotreated with cereblon ligands 8046, 8047 and 8066 vs monomers alone” value in test [2] is reported as “reduced viability; also recorded: increased toxicity”. Moreover, in test [4] (Table 3, aromatic 1,2-diol-containing VHL ligand, second drawing (8305)), the “Degradation of BRD4 in combination with VHL ligand [drawing 397]” value is reported as “✓ (A black check mark indicates efficacy of 30% to 70% or higher protein degradation)”.

Consider `COc1ccc2c(c1)C(c1ccc(Cl)cc1)=N[C@@H](CC(=O)NCCc1ccc(O)c(O)c1)c1nnc(C)n1-2` [BRD-N10, (S)-2-(6-(4-chlorophenyl)-8-methoxy-1-methyl-4H-benzo[f][1,2,4]triazolo[4,3-a][1,4]diazepin-4-yl)-N-(3,4-dihydroxyphenethyl)acetamide], for which the “Loss of cellular viability / toxicity, co-dosed with CRBN ligand 8049” value in test [2] (MV-4-11, 24 hours, 1:1 with 8049, 1 nM-100 μM each) was “concentration-dependent loss in cellular viability; also recorded: increased toxicity”. Besides, in test [3] (24 h, 1:1 with 8048, 1-10 μM each, Western blot), the “BRD4 degradation, co-treatment with CRBN ligand 8048” value was “causes degradation of BRD4; also recorded: capable of degrading BRD4”. Further, in test [3] (24 h, BRD monomer alone, Western blot), the “BRD4 degradation, BRD ligand alone” value is given as “no degradation of BRD4”. Further, the “Degradation of BRD4 in combination with CRBN ligand [drawing 407]” value in test [4] (Table 4, aryl-boronic acid-containing CRBN ligand, first drawing (by text: 8048)) is recorded as “✓ (A black check mark indicates efficacy of 30% to 70% or higher protein degradation)”. The “Degradation of BRD4 in combination with CRBN ligand [drawing 408]” value in test [4] (Table 4, aryl-boronic acid-containing CRBN ligand, second drawing (by text: 8049)) is recorded as “✓ (A black check mark indicates efficacy of 30% to 70% or higher protein degradation)”. In addition, the “Degradation of BRD4 in combination with MDM2 ligand [drawing 423]” value in test [4] (Table 5, aryl-boronic acid-containing MDM2 ligand, first drawing (8310)) is given as “✓ (A black check mark indicates efficacy of 30% to 70% or higher protein degradation)”.

As to `Nc1cccc2c1C(=O)N(C1CCC(=O)NC1=O)C2=O` (stereo not drawn) [pomalidomide, reference compound], the “Suppression of SLC19A1 expression, single compound” value in test [1] is given as “no suppression”. For the same compound, the “Inhibition of CURE-PRO-mediated BRD4 degradation (BRD-E52 or BRD-E72 with 8047) by preincubation” value in test [3] (15 min preincubation, equimolar (10 μM)) is on record as “competitively inhibited; also recorded: inhibition of CURE-PRO-mediated BRD4 degradation”.
